Data: US20100129418A1, “METHOD OF INDUCING NEGATIVE CHEMOTAXIS USING AN ELLAGITANNIN OR GALLOTANNIN” (priority 2008, published 2010)

Tested on: neutrophils
Test: Chemorepulsion/chemoattraction transwell migration assay (Neuroprobe ChemoTx plates)
Assay type: cell-based
Conditions: Homo sapiens, Neutrophil, 1 h, 1.1 mg/ml ellagic acid, CR mode, 1 hour at 37° C., read-out: fold induction of chemorepulsion as compared to media
Experimental: The chemorepulsive activity of ellagic acid was determined as follows: • 1. Prior to beginning the assay, the following were prepared: • a. 0.5% Fetal Calf Serum (FCS) in Iscove's Modified Dulbecco's Medium (IMDM) (Assay Medium) (Both from ATCC). • b. Migratory cells at a concentration of 2×10^7 cells/ml in Assay Medium. • c. The indicated dilutions of ellagic acid Assay Medium. • 2. The assay plates were Neuroprobe ChemoTx plates, part number 206-3 (3 um pore size) for neutrophils. • 3. The plates were removed from packaging, leaving the membrane behind. • 4. 31 μl of the following solutions were pipetted into each well: • a. For media controls and for chemorepulsion samples, Assay Medium was used. • b. For chemoattraction samples, appropriate dilution of ligand was used. • 5. The membrane was carefully placed onto the plate, starting at one side and then slowly lowering the other edge onto the plate. • 6. 29 μl of the following were pipetted onto the top of each circle: • a. For media controls and chemoattraction samples, Assay Medium was used. • b. For chemorepulsion samples, the appropriate dilution of ligand was used. • 7. […] The assay plates were processed by Guava Easy Cyte Plus (using via cell count for read out). • 1. […] The Guava Easy Cyte Plus was used to read the plate and quantify the number of migrated cells. […]

For O=c1oc2c(O)c(O)cc3c(=O)oc4c(O)c(O)cc1c4c23 [ellagic acid, 2,3,7,8-tetrahydroxy-chromeno[5,4,3-cde]chromene-5,10-dione], the fold induction at 1100 µg/mL was about 55.
